Measurements taken from patent US9463213B2, “Use of degarelix in the treatment of endometriosis and related diseases” (priority 2012, dated 2016).

Legend:
[1] = tested on: women with recurrent endometriosis after surgery; assay: Example 1: clinical comparison of single-dose degarelix with monthly leuprolide acetate in recurrent endometriosis; format: in vivo; conditions: for Disappearance of pain: degarelix acetate 80 mg single s.c. injection vs leuprolide acetate 3.75 mg s.c. monthly, 15 patients per group; for Disappearance of symptoms at the end of treatment / Recurrence six months after the end of treatment / CA-125 after 2 months / CA-125 at the end of treatment: degarelix acetate 80 mg single s.c. vs leuprolide acetate 3.75 mg s.c. monthly; for CA-125 after 2 months / CA-125 at the end of treatment: plasma
Procedure: In this experiment the use of degarelix was studied, administered in a dose of 80 mg in a single infusion, with an effect which lasted for at least 4 months (period of amenorrhea and hypoestrogenism), comparing this with the effect of treatment with leuprolide acetate GnRH-agonist administered in a dose of 3.75 mg per month for at least 6 months in women with recurrent endometriosis after surgery and post-surgery treatment with estro-progestins. 30 women divided into two groups of 15 patients each, with recurrent endometriosis after previous surgery for endometriotic cysts, in whom new ovarian cysts, pelvic pain and a rise in plasma CA125 values occurred, were included in the study. One group of patients was treated with 80 mg degarelix acetate in a single subcutaneous injection (Firmagon 80 mg, company Ferring) on the first day of the menstrual cycle, while the other group was treated with leuprolide acetate (Enantone 3.75, Takeda) in a dose of 3.75 mg subcutaneously every month for four months. Both the groups were monitored for FSH, LH, estradiol, androstenedione, dehydroandrostenedione (DEA) and CA125, with plasma doses every fifteen days starting from the day following administration of the drug. Pelvic pain levels experienced by the patients during treatment and during the six months following suspension of the treatment were also evaluated using a “Visual Analogue Scale” (VAS) in which the patient expressed the level of pain experienced on a 10 cm scale.

[2] = tested on: patients suffering from endometriosis with bilateral ovarian cysts; assay: Example 2: degarelix before assisted reproduction in patients with bilateral endometriotic ovarian cysts; format: in vivo
Procedure: In this experiment, 12 patients suffering from endometriosis with the presence of bilateral ovarian cysts who wished to receive a cycle of assisted reproduction underwent, prior to undergoing controlled ovarian hyperstimulation, treatment with 80 mg degarelix acetate in a single administration 4 months before the assisted reproduction cycle, in order to evaluate the efficacy of this treatment on the reduction and/or disappearance of the ovarian cysts without performing surgery. 12 patients with bilateral endometriotic cysts (cysts larger than 3 cm) and high plasma CA125 (over 60 IU/ml) were selected. 80 mg degarelix acetate (Firmagon 80 mg) was injected into the patients on the first day of the cycle and the patients were then monitored for FSH, LH and estradiol values every 20 days, with an echography check to evaluate the dimensions of the cysts.

healthy women volunteers = conditions: injection of 2.5 mg; cited from earlier work
[3] = tested on: patients with severe endometriosis; conditions: 80 mg monthly for three months; cited from earlier work
[4] = 80 mg single dose vs leuprolide acetate, P<0.01

| Compound | Disappearance of pain [1] | Disappearance of symptoms at the end of treatment [1] [%] | Recurrence six months after the end of treatment [1] [%] | CA-125 after 2 months [1] | CA-125 at the end of treatment [1] | Volume of the endometriotic cysts ([2]; 80 mg single administration, 3 months after treatment, echography) | Levels of FSH, LH and estradiol 3 months after treatment (FIG. 6) ([2]; 80 mg single administration, 12 patients) | Patients with complete disappearance of endometriotic cysts ([2]; 80 mg single administration, of 12 patients) | Pregnancy achieved ([2]; after 80 mg single administration and assisted reproduction cycle, of 12 patients) [cases] | Recurrence of endometriotic cysts during ovarian stimulation with oocyte sampling ([2]; after 80 mg single administration, all patients) | Effect on LH and FSH release (healthy women volunteers) | Time required for LH and FSH to return to base levels (healthy women volunteers) | Duration of effect (period of amenorrhea and hypoestrogenism) ([1]; 80 mg in a single infusion) | Control of painful symptoms (VAS) compared with GnRH agonist (FIG. 5) ([1]; 80 mg single dose vs leuprolide acetate) | Estradiol and androgen levels compared with GnRH agonist (FIGS. 2-4) [1, 4] | Suppression of LH and FSH compared with GnRH agonist (FIG. 1) [1, 4] | Duration of stable suppression of FSH, LH, estradiol and androgen levels ([1]; single administration of 80 mg) [months] | Effect on pain and endometriosis recurrence [3] |
| --- | --- | --- | --- | --- | --- | --- | --- | --- | --- | --- | --- | --- | --- | --- | --- | --- | --- | --- |
| CCNC(=O)[C@@H]1CCCN1C(=O)[C@H](CCCNC(=N)N)NC(=O)[C@H](CC(C)C)NC(=O)[C@@H](CC(C)C)NC(=O)[C@H](Cc1ccc(O)cc1)NC(=O)[C@H](CO)NC(=O)[C@H](Cc1c[nH]c2ccccc12)NC(=O)[C@H](Cc1c[nH]cn1)NC(=O)[C@@H]1CCC(=O)N1 [Leuprolide acetate, leuprolide acetate] | 3.8 ± 0.8 | 60.0 | 33.3 | 52.6 ± 31.5 | 34.0 ± 12.7 |  |  |  |  |  |  |  |  |  |  |  |  |  |
| degarelix acetate | 1.4 ± 0.3 | 93.3 | 6.6 | 32.4 ± 21.4 | 12.6 ± 10.1 | decreased significantly | low levels | at least 4 patients | 5 | without showing any recurrence of endometriotic cysts | immediate suppression of LH and FSH release | approximately 7 days | at least 4 months | better control of painful symptoms | lower levels of estradiol | More rapid and stable suppression of LH and FSH | 4 | reduction of pain and endometriosis recurrence |
